Laboratory results as given in article PMC6767204, “Synthesis and Biological Evaluation of Disubstituted Pyrimidines as Selective 5-HT2C Agonists” (Molecules, 2019).
Where a name gives a salt, the structure may show the parent alone. Read-outs that look alike come from different tables or passages of the source.

Key:
[1] = molecular target: T1, 5-HT2C receptor (Homo sapiens, UniProt P28335); experiment: 5-HT2C receptor cell-based functional assay (agonist mode, fluorescence-based); conditions: for %activation: Table 2, serotonin as reference compound
T1 sequence (P28335 33-458): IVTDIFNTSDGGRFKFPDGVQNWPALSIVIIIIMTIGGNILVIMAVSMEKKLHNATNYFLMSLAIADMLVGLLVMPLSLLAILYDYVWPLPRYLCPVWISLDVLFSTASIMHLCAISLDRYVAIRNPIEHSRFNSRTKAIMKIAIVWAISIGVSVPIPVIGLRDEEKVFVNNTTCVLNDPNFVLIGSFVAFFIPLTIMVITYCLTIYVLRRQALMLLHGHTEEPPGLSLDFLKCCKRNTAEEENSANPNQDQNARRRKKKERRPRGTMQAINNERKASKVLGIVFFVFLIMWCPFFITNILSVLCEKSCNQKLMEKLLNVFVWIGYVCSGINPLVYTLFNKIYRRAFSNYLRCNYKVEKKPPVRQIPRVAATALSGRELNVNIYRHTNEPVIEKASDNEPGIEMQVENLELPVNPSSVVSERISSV
Method: The synthesized compounds were tested in agonist mode with the 5-HT2C receptor assay using recombinant human HEK-293 cells serviced by either Eurofins Cerep or DGMIF (Daegu-Gyeongbuk Medical Innovation Foundation). All the experiments were duplicated.

[2] = molecular target: T1, 5-HT2C receptor; experiment: 5-HT receptor radioligand binding affinity assay, 2C; parameters: expressed in transfected cells
Method: (§1) Eleven dilutions (5 x assay concentration) of the test and reference compounds (Table S1) were prepared in standard binding buffer (50 mM tris(hydroxymethyl)-aminomethane–HCl (Tris-HCl), 10 mM MgCl2, 1 mM ethylenediaminetetraacetate (EDTA), pH 7.4) by serial dilution: 0.05 nM, 0.5 nM, 1.5 nM, 5 nM, 15 nM, 50 nM, 150 nM, 500 nM, 1.5 μM, 5 μM, and 50 μM. The radioligand (Table S1) was diluted to five times the assay concentration in standard binding buffer. Aliquots (50 μL) of the radioligand were dispensed into the wells of a 96-well plate containing 100 μL of standard binding buffer. Triplicate aliquots (50 μL) of the test and reference compound dilutions were then added. Finally, crude membrane fractions (50 μL) of cells (HEK293 or CHO) expressing human recombinant receptors were dispensed into each well. A total 250 μL of the reaction mixtures was incubated at room temperature and shielded from light for 1.5 h, then harvested by rapid filtration onto Whatman GF/B glass fiber filters presoaked with 0.3% polyethyleneimine, by using a 96-well Brandel harvester.
(§2) Four rapid washes were performed with chilled standard binding buffer (500 μL) to decrease nonspecific binding. Filters were placed in 6 mL scintillation tubes and allowed to dry overnight. The next day, 4 ml of EcoScint scintillation cocktail (National Diagnostics) was added to each tube. The tubes were capped, labeled, and counted by liquid scintillation counting. The filter mats were dried, and the scintillant was melted onto the filters, then the radioactivity retained on the filters was counted in a Microbeta scintillation counter. The IC50 values were obtained by using the Prism 4.0 program (GraphPad Software, San Diego, CA) and converted into Ki values. Each compound was tested in triplicate at least.
(§3) 3. Radioligands and reference compounds for binding assay
(§4) Table S1. A list of 5-HT receptor radioligands and reference compounds for binding assay.
(§5) Receptor subtype Radioligand Reference compound
(§6) 1A [3H]8-OH-DPAT Methysergide
(§7) 2A [3H]Ketanserin Chlorpromazine
(§8) 2C [3H]Mesulergine Chlorpromazine

[3] = molecular target: T2, 5-HT2B receptor (Homo sapiens, UniProt P41595); experiment: 5-HT receptor radioligand binding affinity assay, 2B
T2 construct: expressed in transfected cells; host or cells: HEK293 or CHO
Method: as §1, §2, §3, §4, §5, §6, §7, §8

[4] = molecular target: T3, 5-HT6 receptor (Homo sapiens, UniProt P50406); experiment: 5-HT receptor radioligand binding affinity assay, 6
T3 construct: expressed in transfected cells; host or cells: HEK293 or CHO
Method: as §1, §2, §3, §4, §5, §6, §7, §8

[5] = molecular target: T4, 5-HT7 receptor (Homo sapiens, UniProt P34969); experiment: 5-HT receptor radioligand binding affinity assay, 7
T4 construct: expressed in transfected cells; host or cells: HEK293 or CHO
Method: as §1, §2, §3, §4, §5, §6, §7, §8

[6] = molecular target: T5, 5-HT2A receptor (Homo sapiens, UniProt P28223); experiment: 5-HT receptor radioligand binding affinity assay, 2A
T5 construct: expressed in transfected cells; host or cells: HEK293 or CHO
Method: as §1, §2, §3, §4, §5, §6, §7, §8

[7] = molecular target: T6, 5-HT3 receptor (Homo sapiens, UniProt P46098); experiment: 5-HT receptor radioligand binding affinity assay, 3
T6 construct: expressed in transfected cells; host or cells: HEK293 or CHO
T6 sequence (P46098 24-478): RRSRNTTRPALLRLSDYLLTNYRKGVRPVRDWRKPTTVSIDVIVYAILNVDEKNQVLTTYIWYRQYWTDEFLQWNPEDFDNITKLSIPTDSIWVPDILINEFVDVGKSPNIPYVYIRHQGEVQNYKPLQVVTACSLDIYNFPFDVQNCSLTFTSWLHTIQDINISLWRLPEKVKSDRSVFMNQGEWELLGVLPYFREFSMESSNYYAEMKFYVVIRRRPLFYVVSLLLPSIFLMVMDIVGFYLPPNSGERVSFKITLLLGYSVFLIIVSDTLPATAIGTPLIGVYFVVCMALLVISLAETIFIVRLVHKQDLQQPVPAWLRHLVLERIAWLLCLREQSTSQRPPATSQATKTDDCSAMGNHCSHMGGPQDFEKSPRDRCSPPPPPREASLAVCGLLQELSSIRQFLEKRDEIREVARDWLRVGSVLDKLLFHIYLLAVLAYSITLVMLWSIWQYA
Method: as §1, §2, §3, §4, §5, §6, §7, §8

[8] = molecular target: T7, 5-HT1B receptor (Homo sapiens, UniProt P28222); experiment: 5-HT receptor radioligand binding affinity assay, 1B; conditions: 10 μM
T7 construct: expressed in transfected cells; host or cells: HEK293 or CHO

[9] = molecular target: T8, 5-HT5A receptor (Homo sapiens, UniProt P47898); experiment: 5-HT receptor radioligand binding affinity assay, 5A
T8 construct: expressed in transfected cells; host or cells: HEK293 or CHO
Method: as §1, §2, §3
(§9) Table S1. A list of 5-HT receptor radioligands and reference compounds for binding assay. […]

[10] = molecular target: T9, 5-HT1D receptor (Homo sapiens, UniProt P28221); experiment: 5-HT receptor radioligand binding affinity assay, 1D
T9 construct: expressed in transfected cells; host or cells: HEK293 or CHO
Method: as §1, §2, §3, §4, §5, §6, §7, §8

[11] = molecular target: T10, 5-HT1E receptor (Homo sapiens, UniProt P28566); experiment: 5-HT receptor radioligand binding affinity assay, 1E
T10 construct: expressed in transfected cells; host or cells: HEK293 or CHO
Method: as §1, §2, §3, §9

[12] = molecular target: T11, 5-HT1A receptor (Homo sapiens, UniProt P08908); experiment: 5-HT receptor radioligand binding affinity assay, 1A
T11 construct: expressed in transfected cells; host or cells: HEK293 or CHO
T11 sequence (P08908 1-422): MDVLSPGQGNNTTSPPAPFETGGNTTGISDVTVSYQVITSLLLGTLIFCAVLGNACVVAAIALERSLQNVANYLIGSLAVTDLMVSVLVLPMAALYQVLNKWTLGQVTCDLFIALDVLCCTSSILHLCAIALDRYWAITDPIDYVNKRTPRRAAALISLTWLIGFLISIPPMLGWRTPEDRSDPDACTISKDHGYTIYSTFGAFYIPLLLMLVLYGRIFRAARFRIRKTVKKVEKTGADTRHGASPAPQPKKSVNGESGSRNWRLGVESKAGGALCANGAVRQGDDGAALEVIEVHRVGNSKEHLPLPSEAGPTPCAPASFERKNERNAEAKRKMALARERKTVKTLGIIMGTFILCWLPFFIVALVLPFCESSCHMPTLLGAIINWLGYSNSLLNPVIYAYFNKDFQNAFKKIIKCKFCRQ
Method: as §1, §2, §3, §4, §5, §6, §7, §8

[13] = HEK293, read-out: %activation (10 μM), 10 μM, recombinant human HEK-293 cells, Table 1
[14] = HEK293, read-out: %activation (10 μM)
[15] = subtype Ki divided by 5-HT2C Ki

T2 sequence (P41595 whole entry): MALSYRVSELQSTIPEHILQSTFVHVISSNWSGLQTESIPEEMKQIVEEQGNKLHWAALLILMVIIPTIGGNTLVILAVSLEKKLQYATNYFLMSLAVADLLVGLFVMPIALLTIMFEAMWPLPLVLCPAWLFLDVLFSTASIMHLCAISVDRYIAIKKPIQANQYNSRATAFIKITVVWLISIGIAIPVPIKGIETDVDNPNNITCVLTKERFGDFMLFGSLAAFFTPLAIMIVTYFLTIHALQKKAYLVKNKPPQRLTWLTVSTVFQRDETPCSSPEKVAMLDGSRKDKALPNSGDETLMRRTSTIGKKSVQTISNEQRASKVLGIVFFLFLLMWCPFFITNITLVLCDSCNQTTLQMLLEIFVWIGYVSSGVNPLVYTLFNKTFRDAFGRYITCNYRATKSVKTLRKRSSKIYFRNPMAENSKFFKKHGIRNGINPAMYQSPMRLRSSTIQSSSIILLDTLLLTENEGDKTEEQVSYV
T5 sequence (P28223 whole entry): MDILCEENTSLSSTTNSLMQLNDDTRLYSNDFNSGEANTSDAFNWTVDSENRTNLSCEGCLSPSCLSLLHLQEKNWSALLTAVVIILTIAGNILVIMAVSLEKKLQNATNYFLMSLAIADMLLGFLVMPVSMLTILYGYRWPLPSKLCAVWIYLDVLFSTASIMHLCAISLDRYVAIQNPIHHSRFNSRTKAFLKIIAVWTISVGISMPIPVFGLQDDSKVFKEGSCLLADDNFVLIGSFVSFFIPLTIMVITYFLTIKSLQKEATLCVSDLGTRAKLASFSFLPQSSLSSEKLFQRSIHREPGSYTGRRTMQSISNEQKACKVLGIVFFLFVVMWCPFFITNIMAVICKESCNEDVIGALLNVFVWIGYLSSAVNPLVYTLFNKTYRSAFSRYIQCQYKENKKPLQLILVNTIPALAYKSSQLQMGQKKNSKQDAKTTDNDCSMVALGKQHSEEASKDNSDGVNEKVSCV
T3 sequence (P50406 whole entry): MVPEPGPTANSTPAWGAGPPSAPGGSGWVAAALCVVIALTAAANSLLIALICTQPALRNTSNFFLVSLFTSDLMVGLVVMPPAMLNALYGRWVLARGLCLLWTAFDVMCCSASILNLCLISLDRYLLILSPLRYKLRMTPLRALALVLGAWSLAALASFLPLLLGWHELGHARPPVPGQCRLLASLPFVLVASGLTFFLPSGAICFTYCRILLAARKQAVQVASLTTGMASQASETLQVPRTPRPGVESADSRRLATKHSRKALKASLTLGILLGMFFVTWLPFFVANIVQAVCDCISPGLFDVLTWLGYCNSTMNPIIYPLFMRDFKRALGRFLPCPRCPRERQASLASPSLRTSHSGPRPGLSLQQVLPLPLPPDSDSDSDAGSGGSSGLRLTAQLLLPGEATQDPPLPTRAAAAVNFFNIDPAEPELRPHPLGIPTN
T4 sequence (P34969 whole entry): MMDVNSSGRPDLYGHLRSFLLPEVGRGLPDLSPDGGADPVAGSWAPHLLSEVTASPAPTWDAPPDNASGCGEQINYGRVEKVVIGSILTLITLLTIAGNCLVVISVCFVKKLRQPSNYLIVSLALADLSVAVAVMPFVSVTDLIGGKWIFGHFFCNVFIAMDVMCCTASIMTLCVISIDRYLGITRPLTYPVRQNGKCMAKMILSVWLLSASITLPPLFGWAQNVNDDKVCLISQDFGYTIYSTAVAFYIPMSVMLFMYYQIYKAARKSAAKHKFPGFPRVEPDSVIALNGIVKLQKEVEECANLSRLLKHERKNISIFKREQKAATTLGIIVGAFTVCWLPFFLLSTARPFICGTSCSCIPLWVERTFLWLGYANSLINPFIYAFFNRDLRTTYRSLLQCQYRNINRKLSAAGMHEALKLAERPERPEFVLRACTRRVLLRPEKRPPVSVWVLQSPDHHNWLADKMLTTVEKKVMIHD
T9 sequence (P28221 whole entry): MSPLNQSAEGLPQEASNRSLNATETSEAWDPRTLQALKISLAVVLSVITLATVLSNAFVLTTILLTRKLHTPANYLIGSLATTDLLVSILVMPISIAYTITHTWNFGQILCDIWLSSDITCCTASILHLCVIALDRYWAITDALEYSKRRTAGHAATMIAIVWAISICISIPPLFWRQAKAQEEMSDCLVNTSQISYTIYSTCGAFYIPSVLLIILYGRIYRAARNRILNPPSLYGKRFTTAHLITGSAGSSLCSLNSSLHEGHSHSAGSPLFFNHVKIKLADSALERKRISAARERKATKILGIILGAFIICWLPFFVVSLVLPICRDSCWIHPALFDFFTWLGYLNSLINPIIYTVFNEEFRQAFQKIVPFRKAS
T10 sequence (P28566 whole entry): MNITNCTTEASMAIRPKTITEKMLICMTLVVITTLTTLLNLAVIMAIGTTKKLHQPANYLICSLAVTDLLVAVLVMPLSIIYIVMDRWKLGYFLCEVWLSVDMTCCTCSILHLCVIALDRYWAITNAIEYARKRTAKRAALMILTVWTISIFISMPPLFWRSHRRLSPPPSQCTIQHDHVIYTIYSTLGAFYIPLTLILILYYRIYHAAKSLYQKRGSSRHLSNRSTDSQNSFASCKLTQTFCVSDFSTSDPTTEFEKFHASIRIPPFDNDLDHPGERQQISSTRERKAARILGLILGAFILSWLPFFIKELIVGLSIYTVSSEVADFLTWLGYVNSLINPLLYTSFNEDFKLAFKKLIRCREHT
T8 sequence (P47898 whole entry): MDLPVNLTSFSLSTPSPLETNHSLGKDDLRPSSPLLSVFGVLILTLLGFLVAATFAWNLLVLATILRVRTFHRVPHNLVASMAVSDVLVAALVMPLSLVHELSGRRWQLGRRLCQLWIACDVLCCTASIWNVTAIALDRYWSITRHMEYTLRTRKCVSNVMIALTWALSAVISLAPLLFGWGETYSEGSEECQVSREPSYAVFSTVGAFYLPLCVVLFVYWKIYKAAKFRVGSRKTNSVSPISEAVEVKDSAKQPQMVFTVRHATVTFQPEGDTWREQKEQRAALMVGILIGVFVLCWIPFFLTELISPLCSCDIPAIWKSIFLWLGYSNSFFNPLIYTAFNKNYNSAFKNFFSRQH
T7 sequence (P28222 whole entry): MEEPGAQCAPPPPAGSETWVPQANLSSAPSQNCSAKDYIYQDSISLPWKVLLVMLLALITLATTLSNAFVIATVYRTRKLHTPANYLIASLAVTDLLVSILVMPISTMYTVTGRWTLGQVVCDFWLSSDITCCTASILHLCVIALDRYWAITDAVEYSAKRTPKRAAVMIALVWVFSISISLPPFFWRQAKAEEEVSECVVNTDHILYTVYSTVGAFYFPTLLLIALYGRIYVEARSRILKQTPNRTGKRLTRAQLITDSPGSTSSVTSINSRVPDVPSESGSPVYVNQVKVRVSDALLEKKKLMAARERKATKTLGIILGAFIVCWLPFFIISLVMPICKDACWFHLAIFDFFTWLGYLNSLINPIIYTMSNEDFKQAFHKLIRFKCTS

Fc1cccc(Oc2cnc(N3CCNCC3)nc2)c1 [9a]
activation at 10 µM [1, 13]: 7%

Fc1cccc(COc2cnc(N3CCNCC3)nc2)c1 [9b, 4-(5-((3-fluorobenzyl)oxy)pyrimidin-2-yl)piperazin-1-ium∙hydrochloride]
activation at 10 µM [1, 13]: > 50%

Fc1cccc(CCOc2cnc(N3CCNCC3)nc2)c1 [9c]
activation at 10 µM [1, 13]: 15%

Fc1ccc(Oc2cnc(N3CCNCC3)nc2)cc1 [9d]
activation at 10 µM [1, 13]: 5%

Fc1ccc(COc2cnc(N3CCNCC3)nc2)cc1 [9e, 4-(5-((4-fluorobenzyl)oxy)pyrimidin-2-yl)piperazin-1-ium∙hydrochloride]
activation at 10 µM [1, 13]: 18%

Fc1ccc(CCOc2cnc(N3CCNCC3)nc2)cc1 [9f]
activation at 10 µM [1, 13]: 4%

C[C@@H]1CNCCN1c1ncc(Oc2cccc(F)c2)cn1 [9g]
activation at 10 µM [1, 14]: 35%

C[C@@H]1CNCCN1c1ncc(OCc2cccc(F)c2)cn1 [9h, (R)-4-(5-((3-fluorobenzyl)oxy)pyrimidin-2-yl)-3-methylpiperazine-1-ium∙hydrochloride]
activation at 10 µM [1, 14]: 48%

C[C@@H]1CNCCN1c1ncc(OCCc2cccc(F)c2)cn1 [9i]
activation at 10 µM [1, 14]: 40%

C[C@@H]1CNCCN1c1ncc(Oc2ccc(F)cc2)cn1 [9j]
activation at 10 µM [1, 14]: 26%

C[C@@H]1CNCCN1c1ncc(OCc2ccc(F)cc2)cn1 [9k, (R)-4-(5-((4-fluorobenzyl)oxy)pyrimidin-2-yl)-3-methylpiperazin-1-ium∙hydrochloride]
activation at 10 µM [1, 14]: 48%

C[C@@H]1CNCCN1c1ncc(OCCc2ccc(F)cc2)cn1 [9l]
activation at 10 µM [1, 14]: 32%

Fc1cccc(Oc2cnc(N3CCCNCC3)nc2)c1 [9m]
activation at 10 µM [1, 14]: 16%

Fc1cccc(COc2cnc(N3CCCNCC3)nc2)c1 [9n, 4-(5-((3-fluorobenzyl)oxy)pyrimidin-2-yl)-1,4-diazepan-1-ium∙hydrochloride]
activation at 10 µM [1, 14]: -1%

Fc1cccc(CCOc2cnc(N3CCCNCC3)nc2)c1 [9o]
activation at 10 µM [1, 14]: 3%

Fc1ccc(Oc2cnc(N3CCCNCC3)nc2)cc1 [9p]
activation at 10 µM [1, 14]: 14%

Fc1ccc(COc2cnc(N3CCCNCC3)nc2)cc1 [9q, 4-(5-((4-fluorobenzyl)oxy)pyrimidin-2-yl)-1,4-diazepan-1-ium∙hydrochloride]
activation at 10 µM [1, 14]: 16%

Fc1ccc(CCOc2cnc(N3CCCNCC3)nc2)cc1 [9r]
activation at 10 µM [1, 14]: -1%

C[C@@H](Oc1nc(N2CCC3(CCNC3)C2)ncc1F)c1cccc(F)c1 (stereo partly drawn) [10b, 2-(5-fluoro-4-((R)-1-(3-fluorophenyl)ethoxy)pyrimidin-2-yl)-2,7-diazaspiro[4.4]nonane]
%activation [1]: 78.2%

C[C@@H](Oc1nc(N2C[C@H]3CNC[C@H]3C2)ncc1F)c1cccc(F)c1 [10c, (3aR,6aS)-2-(5-fluoro-4-((R)-1-(3-fluorophenyl)ethoxy)pyrimidin-2-yl)octahydropyrrolo[3,4-c]pyrrole]
%activation [1]: 29.5%
Ki ([2]; Table 2): 295 nM

C[C@@H](Oc1nc(N[C@@H]2CCNC2)ncc1F)c1cccc(F)c1 [10d, 5-fluoro-4-((R)-1-(3-fluorophenyl)ethoxy)-N-((R)-pyrrolidin-3-yl)pyrimidin-2-amine]
%activation [1]: 16.4%
Ki ([2]; Table 2): 119 nM

C[C@@H](Oc1nc(N[C@H]2CCNC2)ncc1F)c1cccc(F)c1 [10e, 5-fluoro-4-((R)-1-(3-fluorophenyl)ethoxy)-N-((S)-pyrrolidin-3-yl)pyrimidin-2-amine]
%activation [1]: 7.7%
Ki ([2]; Table 2): 1260 nM

C[C@@H](Oc1nc(N2CCCNCC2)ncc1F)c1ccc(F)cc1 [10f, (R)-1-(5-fluoro-4-(1-(4-fluorophenyl)ethoxy)pyrimidin-2-yl)-1,4-diazepane]
Ki [3]: 118 nM
%Binding at 10 μM, 2B ([3]; 10 μM): 95.0%
SI, selectivity index, 2B [3, 15]: 6.2
Ki [4]: 467 nM
%Binding at 10 μM, 6 ([4]; 10 μM): 56.5%
SI, selectivity index, 6 [4, 15]: 24.6
Ki [5]: 616 nM
%Binding at 10 μM, 7 ([5]; 10 μM): 55.4%
SI, selectivity index, 7 [5, 15]: 32.4
Ki [6]: 2860 nM
%Binding at 10 μM, 2A ([6]; 10 μM): 52.9%
SI, selectivity index, 2A [6, 15]: 150.7
%activation [1]: 52.4%
Ki [7]: 415 nM
%Binding at 10 μM, 3 ([7]; 10 μM): 88.0%
SI, selectivity index, 3 [7, 15]: 21.8
%Binding at 10 μM, 1B [8]: 19.2 /ND^b %
%Binding at 10 μM, 5A [9]: 15.2 /ND %
%binding ([2]; Table 2): 93.9%
Ki ([2]; Table 2): 19 nM
SI, selectivity index, 2C [2, 15]: 1.0
Ki [10]: 937 nM
%Binding at 10 μM, 1D ([10]; 10 μM): 81.3%
SI, selectivity index, 1D [10, 15]: 49.3
%Binding at 10 μM, 1E [11]: 31.3 /ND^b %
Ki [12]: 1070 nM
%Binding at 10 μM, 1A ([12]; 10 μM): 67.6%
SI, selectivity index, 1A [12, 15]: 56.1

C[C@@H](Oc1nc(N2CCC3(CCNC3)C2)ncc1F)c1ccc(F)cc1 (stereo partly drawn) [10g, 2-(5-fluoro-4-((R)-1-(4-fluorophenyl)ethoxy)pyrimidin-2-yl)-2,7-diazaspiro[4.4]nonane]
Ki ([2]; Table 2): 232 nM

C[C@@H](Oc1nc(N2C[C@H]3CNC[C@H]3C2)ncc1F)c1ccc(F)cc1 [10h, (3aR,6aS)-2-(5-fluoro-4-((R)-1-(4-fluorophenyl)ethoxy)pyrimidin-2-yl)octahydropyrrolo[3,4-c]pyrrole]
%activation [1]: 10.1%
Ki ([2]; Table 2): 466 nM

C[C@@H](Oc1nc(N[C@@H]2CCNC2)ncc1F)c1ccc(F)cc1 [10i, 5-fluoro-4-((R)-1-(4-fluorophenyl)ethoxy)-N-((R)-pyrrolidin-3-yl)pyrimidin-2-amine]
Ki ([2]; Table 2): 120 nM

C[C@@H](Oc1nc(N[C@H]2CCNC2)ncc1F)c1ccc(F)cc1 [10j, 5-Fluoro-4-((R)-1-(4-fluorophenyl)ethoxy)-N-((S)-pyrrolidin-3-yl)pyrimidin-2-amine]
%activation [1]: 0.1%

C[C@H]1CNCCc2ccc(Cl)cc21 [Lorcaserin (1), Lorcaserin, reference compound]
%activation value at 1 μM ([1]; 1 μM, Table 1 footnote a): 94^a %
